Experimental data reported in ChEMBL document CHEMBL1275520, “Metronidazole lacks antibacterial activity in guinea pigs infected with Mycobacterium tuberculosis” (Antimicrob Agents Chemother, 2008).
Calls of active or inactive are those of the source. No cut-off for these calls is given here.

Tests used:
[1] = tested on: Mycobacterium tuberculosis; assay: Antibacterial activity against Mycobacterium tuberculosis infected in Hartley guinea pig lung assessed as reduction in bacteria induced progression of inflammation at 30 mg/kg after 4 weeks by histological analysis relative to control; type: functional, organism-based; parameters: dose 30 mg/kg
[2] = tested on: Mycobacterium tuberculosis; assay: Antibacterial activity against Mycobacterium tuberculosis infected in Hartley guinea pig lung assessed as reduction in development of new secondary lesions at 30 mg/kg after 4 weeks by histological analysis relative to control; type: functional, organism-based; parameters: dose 30 mg/kg
[3] = tested on: Mycobacterium tuberculosis; assay: Antibacterial activity against Mycobacterium tuberculosis infected in Hartley guinea pig spleen assessed as reduction in bacterial load at 30 mg/kg; type: functional, organism-based; parameters: dose 30 mg/kg
[4] = tested on: Mycobacterium tuberculosis; assay: Antibacterial activity against Mycobacterium tuberculosis infected in Hartley guinea pig lung assessed as reduction in bacterial load at 30 mg/kg; type: functional, organism-based; parameters: dose 30 mg/kg
[5] = tested on: Mycobacterium tuberculosis; assay: Antibacterial activity against Mycobacterium tuberculosis infected in Hartley guinea pig lung assessed as reduction in bacterial load at 100 mg/kg; type: functional, organism-based; parameters: dose 100 mg/kg
[6] = tested on: Mycobacterium tuberculosis; assay: Antibacterial activity against Mycobacterium tuberculosis infected in Hartley guinea pig lung assessed as reduction in bacteria induced progression of inflammation at 100 mg/kg after 4 weeks by histological analysis relative to control; type: functional, organism-based; parameters: dose 100 mg/kg
[7] = Toxicity in Hartley guinea pig lung assessed as formation of TB lesions by histological analysis; parameters: species or system Cavia porcellus; conditions: in vivo
[8] = tested on: Mycobacterium tuberculosis; assay: Antibacterial activity against Mycobacterium tuberculosis infected in Hartley guinea pig lung assessed as reduction in development of new secondary lesions at 100 mg/kg after 4 weeks by histological analysis relative to control; type: functional, organism-based; parameters: dose 100 mg/kg
[9] = tested on: Mycobacterium tuberculosis; assay: Antibacterial activity against Mycobacterium tuberculosis infected in Hartley guinea pig spleen assessed as reduction in bacterial load at 100 mg/kg; type: functional, organism-based; parameters: dose 100 mg/kg

| Compound | Activity [1] | Activity [2] | Activity [3] | Activity [4] | Activity [5] | Activity [6] | Activity [7] | Activity [8] | Activity [9] |
| --- | --- | --- | --- | --- | --- | --- | --- | --- | --- |
| NNC(=O)c1ccncc1 | Active | Active | Active | Active |  |  |  |  |  |
| Cc1ncc([N+](=O)[O-])n1CCO [METRONIDAZOLE] |  |  |  |  | inactive | inactive | Toxic | inactive | inactive |
